Earlier results, collected in PubChem BioAssay AID1259409 (Chemical Carcinogenesis Research Information System (CCRIS), 2018).

Test system: rodent chemically induced tumor inhibition, incidence and multiplicity
Test: CCRIS tumor inhibitor studies
Details: Promoter: NONE; for outcome: Carcinogen: OCHRATOXIN A (303-47-9), Strain/Sex: LEWIS/FEMALE

For O=S(=O)(O)CCS, the “tumour outcome (control, treated, inhibition, significance)” value (Carcinogen: 17BETA-ESTRADIOL, 50-28-2, Dose [Inhibitor]: 0, 0.05% IN DRINKING WATER 5 D/WK BEGINNING 5 D POST CARCINOGEN DOSE (STUDY DURATION: 7.5 MO), Route [Inhibitor]: ORAL, Species: HAMSTER, Strain/Sex: SYRIAN/MALE, Target Tissue: Type of Lesion: KIDNEY: TUMOR, Dose [Carcinogen]: 25 MG PELLET REPLACED WITH A SECOND PELLET AFTER 4 MO) is given as 13/13 (100%), 15/19 (79%), 21%, not calculated, the “tumour outcome (control, treated, inhibition, significance)” value (Carcinogen: CYCLOPHOSPHAMIDE, 50-18-0, Dose [Inhibitor]: 5 MG/KG BW IN DRINKING WATER 5/WK FOR 20 MO SIMULTANEOUSLY WITH CARCINOGEN TREATMENT (STUDY DURATION: 20 MO), Route [Inhibitor]: ORAL, Species: RAT, Strain/Sex: SPRAGUE-DAWLEY/MALE, Target Tissue: Type of Lesion: NERVOUS TISSUE: NEOPLASM, Dose [Carcinogen]: 2.5 MG/KG BW IN DRINKING WATER 5/WK FOR 20) is given as 14%, 19%, -36%, not calculated and the “tumour outcome (control, treated, inhibition, significance)” value (Carcinogen: CYCLOPHOSPHAMIDE, 50-18-0, Dose [Inhibitor]: 5 MG/KG BW IN DRINKING WATER 5/WK FOR 20 MO SIMULTANEOUSLY WITH CARCINOGEN TREATMENT (STUDY DURATION: 20 MO), Route [Inhibitor]: ORAL, Species: RAT, Strain/Sex: SPRAGUE-DAWLEY/MALE, Target Tissue: Type of Lesion: URINARY BLADDER: TUMOR, Dose [Carcinogen]: 2.5 MG/KG BW IN DRINKING WATER 5/WK FOR 20 MO) is given as 30%, 22%, 27%, p>0.003*. For the same compound, the “tumour outcome (control, treated, inhibition, significance)” value (Carcinogen: CYCLOPHOSPHAMIDE, 50-18-0, Dose [Inhibitor]: 5 MG/KG BW IN DRINKING WATER 5/WK FOR DURATION OF STUDY SIMULTANEOUSLY WITH CARCINOGEN TREATMENT (STUDY DURATION: LIFE), Route [Inhibitor]: ORAL, Species: RAT, Strain/Sex: SPRAGUE-DAWLEY/MALE, Target Tissue: Type of Lesion: URINARY BLADDER: PAPILLOMA, CARCINOMA, Dose [Carcinogen]: 2.5 MG/KG BW IN DRINKING WATER 5/WK FOR DURATION OF STUDY) was 32/100 (32%), 12/50 (24%), 25%, not calculated, the “tumour outcome (control, treated, inhibition, significance)” value (Carcinogen: CYCLOPHOSPHAMIDE, 50-18-0, Dose [Inhibitor]: 15 MG/KG BW IN DRINKING WATER 5/WK FOR 20 MO SIMULTANEOUSLY WITH CARCINOGEN TREATMENT (STUDY DURATION: 20 MO), Route [Inhibitor]: ORAL, Species: RAT, Strain/Sex: SPRAGUE-DAWLEY/MALE, Target Tissue: Type of Lesion: NERVOUS TISSUE: NEOPLASM, Dose [Carcinogen]: 2.5 MG/KG BW IN DRINKING WATER 5/WK FOR 20 MO) was 14%, 24%, -71%, not calculated and the “tumour outcome (control, treated, inhibition, significance)” value (Carcinogen: CYCLOPHOSPHAMIDE, 50-18-0, Dose [Inhibitor]: 15 MG/KG BW IN DRINKING WATER 5/WK FOR 20 MO SIMULTANEOUSLY WITH CARCINOGEN TREATMENT (STUDY DURATION: 20 MO), Route [Inhibitor]: ORAL, Species: RAT, Strain/Sex: SPRAGUE-DAWLEY/MALE, Target Tissue: Type of Lesion: URINARY BLADDER: TUMOR, Dose [Carcinogen]: 2.5 MG/KG BW IN DRINKING WATER 5/WK FOR 20 MO) was 30%, 7%, 77%, p>0.003*. The “tumour outcome (control, treated, inhibition, significance)” value (Carcinogen: CYCLOPHOSPHAMIDE, 50-18-0, Dose [Inhibitor]: 15 MG/KG BW IN DRINKING WATER 5/WK FOR DURATION OF STUDY SIMULTANEOUSLY WITH CARCINOGEN TREATMENT (STUDY DURATION: LIFE), Route [Inhibitor]: ORAL, Species: RAT, Strain/Sex: SPRAGUE-DAWLEY/MALE, Target Tissue: Type of Lesion: URINARY BLADDER: PAPILLOMA, CARCINOMA, Dose [Carcinogen]: 2.5 MG/KG BW IN DRINKING WATER 5/WK FOR DURATION OF STUDY) was 32/100 (32%), 1/50 (2%), 94%, not calculated, the “tumour outcome (control, treated, inhibition, significance)” value (Carcinogen: N-BUTYL-N(4-HYDROXYBUTYL)NITROSAMINE (3817-11-6), Dose [Inhibitor]: 0.05% IN DRINKING WATER FOR 15 WK (STUDY DURATION: 15 WK), Route [Inhibitor]: ORAL, Species: RAT, Strain/Sex: WISTAR/MALE, Target Tissue: Type of Lesion: URINARY BLADDER: PAPILLOMA, Dose [Carcinogen]: 0.025% IN DRINKING WATER FOR 15 WK) was 38/40 (95%), 18/30 (60%), 37%, p< 0.01 and the “tumour outcome (control, treated, inhibition, significance)” value (Carcinogen: N-BUTYL-N(4-HYDROXYBUTYL)NITROSAMINE (3817-11-6), Dose [Inhibitor]: 0.05% IN DRINKING WATER FOR 15 WK (STUDY DURATION: 15 WK), Route [Inhibitor]: ORAL, Species: RAT, Strain/Sex: WISTAR/MALE, Target Tissue: Type of Lesion: URINARY BLADDER: TRANSITIONAL CELL CARCINOMA, Dose [Carcinogen]: 0.025% IN DRINKING WATER FOR 15 WK) was 4/40 (10%), 1/30 (3%), 70%, not significant. The “tumour outcome (control, treated, inhibition, significance)” value (Carcinogen: N-BUTYL-N-(4-HYDROXYBUTYL)NITROSAMINE, 3817-11-6, Dose [Inhibitor]: 350 MG/KG IN DRINKING WATER 5/WK FOR 39 WK SIMULTANEOUSLY WITH CARCINOGEN TREATMENT FOLLOWED BY OBSERVATION FOR LIFE (ST, Route [Inhibitor]: ORAL, Species: RAT, Strain/Sex: SPRAGUE-DAWLEY/MALE, Target Tissue: Type of Lesion: URINARY BLADDER: PAPILLOMATOUS CARCINOMA, TRANSITIONAL CELL CARCINOMA, Dose [Carcinogen]: 70 MG/KG 2/WK FOR 39 WK SIMULTANEOUSLY WITH AGENT TREATMENT) was 96%, 91%, 5%, not significant, the outcome (Dose [Inhibitor]: 1 G/L IN DRINKING WATER FOR LIFETIME (STUDY DURATION: LIFETIME), Route [Inhibitor]: GAVAGE, Species: RAT, Target Tissue: Type of Lesion: URINARY BLADDER: TRANSITIONAL CELL CARCINOMA, Dose [Carcinogen]: 0.4 MG/KG BW 3X/WK FOR LIFETIME) was 0/20 (0%), 0/20 (0%), 0%, not significant and the outcome (Dose [Inhibitor]: 1 G/L IN DRINKING WATER FOR LIFETIME (STUDY DURATION: LIFETIME), Route [Inhibitor]: GAVAGE, Species: RAT, Target Tissue: Type of Lesion: URINARY BLADDER: TRANSITIONAL CELL PAPILLOMA, Dose [Carcinogen]: 0.4 MG/KG BW 3X/WK FOR LIFETIME) was 0/20 (0%), 0/20 (0%), 0%, not significant. For the same compound, the “tumour outcome (control, treated, inhibition, significance)” value (Carcinogen: OCHRATOXIN A, 303-47-9, Dose [Inhibitor]: 1 G/L IN DRINKING WATER FOR LIFETIME (STUDY DURATION: LIFETIME), Route [Inhibitor]: GAVAGE, Species: RAT, Strain/Sex: DA/FEMALE, Target Tissue: Type of Lesion: URINARY BLADDER: TRANSITIONAL CELL PAPILLOMA, Dose [Carcinogen]: 0.4 MG/KG BW 3X/WK FOR LIFETIME) was 2/40 (6%), 0/40 (0%), 100%, not significant and the “tumour outcome (control, treated, inhibition, significance)” value (Carcinogen: OCHRATOXIN A, 303-47-9, Dose [Inhibitor]: 1 G/L IN DRINKING WATER FOR LIFETIME (STUDY DURATION: LIFETIME), Route [Inhibitor]: GAVAGE, Species: RAT, Strain/Sex: DA/MALE, Target Tissue: Type of Lesion: URINARY BLADDER: TRANSITIONAL CELL CARCINOMA, Dose [Carcinogen]: 0.4 MG/KG BW 3X/WK FOR LIFETIME) was 2/20 (11%), 0/20 (0%), 100%, not significant.
